According to ChEMBL document CHEMBL3046424, “Growth inhibitory effects on fall armyworm Spodoptera frugiperda of some limonoids isolated from Cedrela spp. (Meliaceae)” (2000):
Values after ≈ are worked out from the molar mass of the structure shown.

Assays:
Assay type in all cases: functional
[1] = system: Spodoptera frugiperda; test: Insecticidal activity against Spodoptera frugiperda (fall armyworm) assessed as mean length at 25 ug/ml in artificial diet measured after 7 days (reference value: 28 +/- 4.1 mg)
[2] = system: Spodoptera frugiperda; test: Insecticidal activity against Spodoptera frugiperda (fall armyworm) assessed as mean weight gain at 5 ug/ml in artificial diet measured after 7 days (reference value: 469.5 +/- 6.59 mg)
[3] = system: Spodoptera frugiperda; test: Insecticidal activity against Spodoptera frugiperda (fall armyworm) assessed as mean emergence at 25 ug/ml in artificial diet (reference value: 83.3 %)
[4] = system: Spodoptera frugiperda; test: Insecticidal activity against Spodoptera frugiperda (fall armyworm) assessed as mean emergence at 52 ug/ml in artificial diet (reference value: 83.3 %)
[5] = system: Spodoptera frugiperda; test: Insecticidal activity against Spodoptera frugiperda (fall armyworm) assessed as mean pupation at 25 ug/ml in artificial diet (reference value: 87.5 %)
[6] = system: Spodoptera frugiperda; test: Insecticidal activity against Spodoptera frugiperda (fall armyworm) assessed as mean pupation at 52 ug/ml in artificial diet (reference value: 87.5 %)
[7] = system: Spodoptera frugiperda; test: Insecticidal activity against Spodoptera frugiperda (fall armyworm) assessed as mean emergence days at 5 ug/ml in artificial diet (reference value: 33 days)
[8] = system: Spodoptera frugiperda; test: Insecticidal activity against Spodoptera frugiperda (fall armyworm) assessed as mean emergence days at 25 ug/ml in artificial diet (reference value: 33 days)
[9] = system: Spodoptera frugiperda; test: Insecticidal activity against Spodoptera frugiperda (fall armyworm) assessed as mean emergence days at 52 ug/ml in artificial diet (reference value: 33 days)
[10] = system: Spodoptera frugiperda; test: Insecticidal activity against Spodoptera frugiperda (fall armyworm) assessed as mean emergence at 5 ug/ml in artificial diet (reference value: 83.3 %)
[11] = system: Spodoptera frugiperda; test: Insecticidal activity against Spodoptera frugiperda (fall armyworm) assessed as mean time to pupation at 5 ug/ml in artificial diet (reference value: 22 days)
[12] = system: Spodoptera frugiperda; test: Insecticidal activity against Spodoptera frugiperda (fall armyworm) assessed as mean time to pupation at 25 ug/ml in artificial diet (reference value: 22 days)
[13] = system: Spodoptera frugiperda; test: Insecticidal activity against Spodoptera frugiperda (fall armyworm) assessed as mean time to pupation at 52 ug/ml in artificial diet (reference value: 22 days)
[14] = system: Spodoptera frugiperda; test: Insecticidal activity against Spodoptera frugiperda (fall armyworm) assessed as mean weight of pupae at 5 ug/ml in artificial diet (reference value: 281.5 +/- 10.3 mg)
[15] = system: Spodoptera frugiperda; test: Insecticidal activity against Spodoptera frugiperda (fall armyworm) assessed as mean weight of pupae at 25 ug/ml in artificial diet (reference value: 281.5 +/- 10.3 mg)
[16] = system: Spodoptera frugiperda; test: Insecticidal activity against Spodoptera frugiperda (fall armyworm) assessed as mean weight of pupae at 52 ug/ml in artificial diet (reference value: 281.5 +/- 10.3 mg)
[17] = system: Spodoptera frugiperda; test: Insecticidal activity against Spodoptera frugiperda (fall armyworm) assessed as mean pupation at 5 ug/ml in artificial diet (reference value: 87.5 %)
[18] = system: Spodoptera frugiperda; test: Insecticidal activity against Spodoptera frugiperda (fall armyworm) assessed as mean length at 52 ug/ml in artificial diet measured after 7 days (reference value: 28 +/- 4.1 mg)
[19] = system: Spodoptera frugiperda; test: Insecticidal activity against Spodoptera frugiperda (fall armyworm) assessed as mean length at 5 ug/ml in artificial diet measured after 7 days (reference value: 28 +/- 4.1 mg)
[20] = system: Spodoptera frugiperda; test: Insecticidal activity against Spodoptera frugiperda (fall armyworm) assessed as mean weight gain at 25 ug/ml in artificial diet measured after 7 days (reference value: 469.5 +/- 6.59 mg)
[21] = system: Spodoptera frugiperda; test: Insecticidal activity against Spodoptera frugiperda (fall armyworm) assessed as mean weight gain at 52 ug/ml in artificial diet measured after 7 days (reference value: 469.5 +/- 6.59 mg)
[22] = system: Spodoptera frugiperda; test: Insecticidal activity against Spodoptera frugiperda (fall armyworm) assessed as mean weight gain at 52 ug/ml in artificial diet measured after 7 days (reference value: 75.5 +/- 8.24 mg)
[23] = system: Spodoptera frugiperda; test: Insecticidal activity against Spodoptera frugiperda (fall armyworm) assessed as mean weight gain at 25 ug/ml in artificial diet measured after 7 days (reference value: 75.5 +/- 8.24 mg)
[24] = system: Spodoptera frugiperda; test: Insecticidal activity against Spodoptera frugiperda (fall armyworm) assessed as mean weight gain at 5 ug/ml in artificial diet measured after 7 days (reference value: 75.5 +/- 8.24 mg)
[25] = system: Spodoptera frugiperda; test: Insecticidal activity against Spodoptera frugiperda (fall armyworm) assessed as mean length at 52 ug/ml in artificial diet measured after 7 days (reference value: 0.95 +/- 0.2 cm)
[26] = system: Spodoptera frugiperda; test: Insecticidal activity against Spodoptera frugiperda (fall armyworm) assessed as mean length at 70 ug/ml in artificial diet measured after 7 days (reference value: 0.95 +/- 0.2 cm)
[27] = system: Spodoptera frugiperda; test: Insecticidal activity against Spodoptera frugiperda (fall armyworm) assessed as mortality at 5 ug/ml in artificial diet measured after 7 days (reference value: 8.33%); details: 168 h
[28] = system: Spodoptera frugiperda; test: Insecticidal activity against Spodoptera frugiperda (fall armyworm) assessed as mortality at 70 ug/ml in artificial diet measured after 7 days (reference value: 8.33%); details: 168 h
[29] = system: Spodoptera frugiperda; test: Insecticidal activity against Spodoptera frugiperda (fall armyworm) assessed as mortality at 52 ug/ml in artificial diet measured after 7 days (reference value: 8.33%); details: 168 h
[30] = system: Spodoptera frugiperda; test: Insecticidal activity against Spodoptera frugiperda (fall armyworm) assessed as mortality at 25 ug/ml in artificial diet measured after 7 days (reference value: 8.33%); details: 168 h
[31] = system: Spodoptera frugiperda; test: Insecticidal activity against Spodoptera frugiperda (fall armyworm) assessed as mean length at 25 ug/ml in artificial diet measured after 7 days (reference value: 0.95 +/- 0.2 cm)
[32] = system: Spodoptera frugiperda; test: Insecticidal activity against Spodoptera frugiperda (fall armyworm) assessed as mean length at 5 ug/ml in artificial diet measured after 7 days (reference value: 0.95 +/- 0.2 cm)
[33] = system: Spodoptera frugiperda; test: Insecticidal activity against Spodoptera frugiperda (fall armyworm) assessed as mean weight gain at 70 ug/ml in artificial diet measured after 7 days (reference value: 75.5 +/- 8.24 mg)
[34] = system: Spodoptera frugiperda; test: Insecticidal activity against Spodoptera frugiperda (fall armyworm) assessed as mean length at 10 ug/ml in artificial diet measured after 7 days (reference value: 28 +/- 4.1 mg)
[35] = system: Spodoptera frugiperda; test: Insecticidal activity against Spodoptera frugiperda (fall armyworm) assessed as mean length at 15 ug/ml in artificial diet measured after 7 days (reference value: […])
[36] = system: Spodoptera frugiperda; test: Insecticidal activity against Spodoptera frugiperda (fall armyworm) assessed as mean length at 39 ug/ml in artificial diet measured after 7 days (reference value: 28 +/- 4.1 mg)
[37] = system: Spodoptera frugiperda; test: Insecticidal activity against Spodoptera frugiperda (fall armyworm) assessed as mean weight gain at 10 ug/ml in artificial diet measured after 7 days (reference value: 469.5 +/- 6.59 mg)
[38] = system: Spodoptera frugiperda; test: Insecticidal activity against Spodoptera frugiperda (fall armyworm) assessed as mean weight gain at 15 ug/ml in artificial diet measured after 7 days (reference value: 469.5 +/- 6.59 mg)
[39] = system: Spodoptera frugiperda; test: Insecticidal activity against Spodoptera frugiperda (fall armyworm) assessed as mean weight gain at 39 ug/ml in artificial diet measured after 7 days (reference value: 469.5 +/- 6.59 mg)
[40] = system: Spodoptera frugiperda; test: Insecticidal activity against Spodoptera frugiperda (fall armyworm) assessed as mean weight gain at 39 ug/ml in artificial diet measured after 7 days (reference value: 75.5 +/- 8.24 mg)
[41] = system: Spodoptera frugiperda; test: Insecticidal activity against Spodoptera frugiperda (fall armyworm) assessed as mean weight gain at 15 ug/ml in artificial diet measured after 7 days (reference value: 75.5 +/- 8.24 mg)
[42] = system: Spodoptera frugiperda; test: Insecticidal activity against Spodoptera frugiperda (fall armyworm) assessed as mean weight gain at 10 ug/ml in artificial diet measured after 7 days (reference value: 75.5 +/- 8.24 mg)
[43] = system: Spodoptera frugiperda; test: Insecticidal activity against Spodoptera frugiperda (fall armyworm) assessed as mean length at 39 ug/ml in artificial diet measured after 7 days (reference value: 0.95 +/- 0.2 cm)
[44] = system: Spodoptera frugiperda; test: Insecticidal activity against Spodoptera frugiperda (fall armyworm) assessed as mortality measured after 7 days; details: 168 h
[45] = system: Spodoptera frugiperda; test: Insecticidal activity against Spodoptera frugiperda (fall armyworm) assessed as mortality at 39 ug/ml in artificial diet measured after 7 days (reference value: 8.33%); details: 168 h
[46] = system: Spodoptera frugiperda; test: Insecticidal activity against Spodoptera frugiperda (fall armyworm) assessed as mortality at 15 ug/ml in artificial diet measured after 7 days (reference value: 8.33%); details: 168 h
[47] = system: Spodoptera frugiperda; test: Insecticidal activity against Spodoptera frugiperda (fall armyworm) assessed as mortality at 10 ug/ml in artificial diet measured after 7 days (reference value: 8.33%); details: 168 h
[48] = system: Spodoptera frugiperda; test: Insecticidal activity against Spodoptera frugiperda (fall armyworm) assessed as mean length at 15 ug/ml in artificial diet measured after 7 days (reference value: 0.95 +/- 0.2 cm)
[49] = system: Spodoptera frugiperda; test: Insecticidal activity against Spodoptera frugiperda (fall armyworm) assessed as mean length at 10 ug/ml in artificial diet measured after 7 days (reference value: 0.95 +/- 0.2 cm)

CCC(=O)[C@@H]1C(=O)O[C@@]2(C=O)[C@H]1[C@](C)([C@@H](OC(C)=O)c1ccoc1)CC[C@@H]2[C@@]1(C)C(=O)C[C@@H]2O[C@@H](C(=O)OC)[C@H]1C2(C)C [CEDRELANOLIDE]
Activity [1]: 6.7 mm
Activity [2]: 55.7 mg
Activity [3]: 62.5%
Activity [4]: 50%
Activity [5]: 66.7%
Activity [6]: 62.5%
Time [7]: 33 days
Time [8]: 33 days
Time [9]: 33 days
Activity [10]: 79.2%
Time [11]: 22 days
Time [12]: 21.5 days
Time [13]: 22.5 days
Activity [14]: 221.9 mg
Activity [15]: 191.8 mg
Activity [16]: 123.9 mg
Activity [17]: 79.2%
Activity [18]: 5.3 mm
Activity [19]: 8.7 mm
Activity [20]: 41.6 mg
Activity [21]: 40.1 mg
Activity [22]: 15.4 mg
Activity [23]: 20.8 mg
Activity [24]: 27.85 mg
Activity [25]: 0.7 cm
Activity [26]: 0.51 cm
mortality at 5 µg/mL [27]: 15%
mortality at 70 µg/mL [28]: 38%
mortality at 52 µg/mL [29]: 28%
mortality at 25 µg/mL [30]: 21%
Activity [31]: 0.95 cm
Activity [32]: 1.2 cm
Activity [33]: 9.1 mg

CC(=O)O[C@@H]1C[C@H]2C(C)(C)C(=O)C=C[C@]2(C)[C@H]2CC[C@@]3(C)[C@H](c4ccoc4)OC(=O)[C@H]4O[C@]43[C@@]21C [GEDUNIN]
Activity [34]: 2.9 mm
Activity [35]: 2.6 mm
Activity [1]: 2.1 mm
Activity [2]: 16.12 mg
Activity [3]: 16.7%
Activity [4]: 4.17%
Activity [5]: 16.7%
Activity [6]: 4.17%
Time [7]: 33 days
Time [8]: 35 days
Time [9]: 36 days
Activity [10]: 17.9%
Time [11]: 22 days
Time [12]: 23 days
Time [13]: 24 days
Activity [14]: 147.9 mg
Activity [15]: 122.4 mg
Activity [16]: 52 mg
Activity [17]: 20.8%
Activity [36]: 2 mm
Activity [18]: 2.1 mm
Activity [19]: 2.6 mm
Activity [37]: 4.95 mg
Activity [38]: 3.61 mg
Activity [20]: 3.45 mg
Activity [39]: 2.8 mg
Activity [21]: 2.2 mg
Activity [22]: 1.9 mg
Activity [40]: 2.3 mg
Activity [23]: 3.4 mg
Activity [41]: 3.6 mg
Activity [42]: 4.9 mg
Activity [24]: 6.12 mg
Activity [43]: 0.25 cm
Activity [25]: 0.2 cm
mortality at 5 µg/mL [27]: 25%
LC50 [44]: 39 µg/mL (≈ 80.8 µM)
mortality at 52 µg/mL [29]: 70.8%
mortality at 39 µg/mL [45]: 48.3%
mortality at 25 µg/mL [30]: 38.3%
mortality at 15 µg/mL [46]: 33.3%
mortality at 10 µg/mL [47]: 33.3%
Activity [31]: 0.3 cm
Activity [48]: 0.35 cm
Activity [49]: 0.4 cm
Activity [32]: 0.5 cm

CC(=O)O[C@@H]1C[C@H](O)[C@@]23CO[C@@H](O)[C@]1(C)[C@@H]2C[C@@H](O)[C@]1(C)[C@@H]3C(=O)[C@H](OC(C)=O)[C@@]2(C)[C@H](c3ccoc3)C[C@H]3O[C@]321 [TOOSENDANIN]
Activity [1]: 6.1 mm
Activity [2]: 21.5 mg
Activity [3]: 4.17%
Activity [4]: 0%
Activity [5]: 4.17%
Activity [6]: 4.17%
Time [7]: 36 days
Time [8]: 36 days
Activity [10]: 16.7%
Time [11]: 23.5 days
Time [12]: 24 days
Time [13]: 24 days
Activity [14]: 95 mg
Activity [15]: 45.1 mg
Activity [16]: 38 mg
Activity [17]: 17.9%
Activity [18]: 2.8 mm
Activity [19]: 7 mm
Activity [20]: 17 mg
Activity [21]: 11.2 mg
Activity [22]: 1 mg
Activity [23]: 2.3 mg
Activity [24]: 5.1 mg
Activity [25]: 0.57 cm
mortality at 5 µg/mL [27]: 40%
LC50 [44]: 7 µg/mL (≈ 12.2 µM)
mortality at 52 µg/mL [29]: 89%
mortality at 25 µg/mL [30]: 70%
Activity [31]: 0.77 cm
Activity [32]: 0.98 cm
